Results taken from the NIST ThermoML archive (doi:10.1016/j.fluid.2018.04.007).
± gives the expanded uncertainty stated by the source.

How the values were obtained:
[1] = refractive index (Na D-line) (dimensionless); details: 101 kPa, Liquid, Standard Abbe refractometry
[2] = 101 kPa, Liquid, Vibrating tube method
[3] = relative permittivity at various frequencies (dimensionless); details: 101 kPa, Liquid, Frequency=1 MHz, Parallel plate capacitor
[4] = refractive index (Na D-line) (dimensionless); xn = mol fraction of the nth substance listed; details: 101 kPa, Liquid, Standard Abbe refractometry, x1 = 1
[5] = relative permittivity at various frequencies (dimensionless); xn = mol fraction of the nth substance listed; details: 101 kPa, Liquid, Frequency=1 MHz, Parallel plate capacitor, x1 = 1

## CCCO [propan-1-ol]
[1]; 293.15 K
  refractive index: 1.38514 ± 0.00033
[1]; 298.15 K
  refractive index: 1.38306 ± 0.00033
[1]; 303.15 K
  refractive index: 1.38102 ± 0.00033
[2]; 293.15 K
  mass density: 803.66 ± 1.9 kg/m3
[2]; 298.15 K
  mass density: 799.68 ± 1.9 kg/m3
[2]; 303.15 K
  mass density: 795.66 ± 1.9 kg/m3
[3]; 293.15 K
  relative permittivity: 21.15 ± 0.78
[3]; 298.15 K
  relative permittivity: 20.449 ± 0.77
[3]; 303.15 K
  relative permittivity: 19.784 ± 0.76

## CCCCCO [pentan-1-ol] + CCCCCCN
[4]; 293.15 K
  refractive index: 1.40985 ± 0.00033
[4]; 298.15 K
  refractive index: 1.40793 ± 0.00033
[4]; 303.15 K
  refractive index: 1.4059 ± 0.00033
[5]; 293.15 K
  relative permittivity: 15.701 ± 0.68
[5]; 298.15 K
  relative permittivity: 15.102 ± 0.67
[5]; 303.15 K
  relative permittivity: 14.536 ± 0.65

## CO [methanol] + CCCCCCN
[4]; 293.15 K
  refractive index: 1.32862 ± 0.00033
[4]; 298.15 K
  refractive index: 1.32654 ± 0.00033
[4]; 303.15 K
  refractive index: 1.32439 ± 0.00033
[5]; 293.15 K
  relative permittivity: 33.569 ± 0.97
[5]; 298.15 K
  relative permittivity: 32.619 ± 0.96
[5]; 303.15 K
  relative permittivity: 33.569 ± 0.97

## CCCCO [butan-1-ol]
[1]; 293.15 K
  refractive index: 1.39931 ± 0.00033
[1]; 298.15 K
  refractive index: 1.39733 ± 0.00033
[1]; 303.15 K
  refractive index: 1.39529 ± 0.00033
[2]; 293.15 K
  mass density: 809.85 ± 1.9 kg/m3
[2]; 298.15 K
  mass density: 806.06 ± 1.9 kg/m3
[2]; 303.15 K
  mass density: 802.22 ± 1.9 kg/m3
[3]; 293.15 K
  relative permittivity: 18.192 ± 0.73
[3]; 298.15 K
  relative permittivity: 17.545 ± 0.71
[3]; 303.15 K
  relative permittivity: 16.933 ± 0.7

## CCCCCCCO [heptan-1-ol]
[1]; 293.15 K
  refractive index: 1.42425 ± 0.00033
[1]; 298.15 K
  refractive index: 1.42235 ± 0.00033
[1]; 303.15 K
  refractive index: 1.42047 ± 0.00033
[2]; 293.15 K
  mass density: 822.37 ± 2 kg/m3
[2]; 298.15 K
  mass density: 818.9 ± 2 kg/m3
[2]; 303.15 K
  mass density: 815.37 ± 2 kg/m3
[3]; 293.15 K
  relative permittivity: 12.019 ± 0.6
[3]; 298.15 K
  relative permittivity: 11.504 ± 0.59
[3]; 303.15 K
  relative permittivity: 11.014 ± 0.57

## CCCCCCN [1-hexanamine]
[1]; 293.15 K
  refractive index: 1.41808 ± 0.00033
[1]; 298.15 K
  refractive index: 1.41563 ± 0.00033
[1]; 303.15 K
  refractive index: 1.41321 ± 0.00033
[2]; 293.15 K
  mass density: 764.43 ± 1.8 kg/m3
[2]; 298.15 K
  mass density: 760.19 ± 1.8 kg/m3
[2]; 303.15 K
  mass density: 755.9 ± 1.8 kg/m3
[3]; 293.15 K
  relative permittivity: 3.964 ± 0.37
[3]; 298.15 K
  relative permittivity: 3.904 ± 0.37
[3]; 303.15 K
  relative permittivity: 3.846 ± 0.36

## CO [methanol]
[1]; 293.15 K
  refractive index: 1.32862 ± 0.00033
[1]; 298.15 K
  refractive index: 1.32654 ± 0.00033
[1]; 303.15 K
  refractive index: 1.32439 ± 0.00033
[2]; 293.15 K
  mass density: 791.63 ± 1.9 kg/m3
[2]; 298.15 K
  mass density: 786.95 ± 1.9 kg/m3
[2]; 303.15 K
  mass density: 782.22 ± 1.9 kg/m3
[3]; 293.15 K
  relative permittivity: 33.569 ± 0.97
[3]; 298.15 K
  relative permittivity: 32.619 ± 0.96
[3]; 303.15 K
  relative permittivity: 31.652 ± 0.95

## CCCCCCCO [heptan-1-ol] + CCCCCCN
[4]; 293.15 K
  refractive index: 1.42425 ± 0.00033
[4]; 298.15 K
  refractive index: 1.42235 ± 0.00033
[4]; 303.15 K
  refractive index: 1.42047 ± 0.00033
[5]; 293.15 K
  relative permittivity: 12.019 ± 0.6
[5]; 298.15 K
  relative permittivity: 11.504 ± 0.59
[5]; 303.15 K
  relative permittivity: 11.014 ± 0.57

## CCCCCO [pentan-1-ol]
[1]; 293.15 K
  refractive index: 1.40985 ± 0.00033
[1]; 298.15 K
  refractive index: 1.40793 ± 0.00033
[1]; 303.15 K
  refractive index: 1.4059 ± 0.00033
[2]; 293.15 K
  mass density: 814.66 ± 2 kg/m3
[2]; 298.15 K
  mass density: 811.03 ± 1.9 kg/m3
[2]; 303.15 K
  mass density: 807.35 ± 1.9 kg/m3
[3]; 293.15 K
  relative permittivity: 15.701 ± 0.68
[3]; 298.15 K
  relative permittivity: 15.102 ± 0.67
[3]; 303.15 K
  relative permittivity: 14.536 ± 0.65

## CCCCO [butan-1-ol] + CCCCCCN
[4]; 293.15 K
  refractive index: 1.39931 ± 0.00033
[4]; 298.15 K
  refractive index: 1.39733 ± 0.00033
[4]; 303.15 K
  refractive index: 1.39529 ± 0.00033
[5]; 293.15 K
  relative permittivity: 18.192 ± 0.73
[5]; 298.15 K
  relative permittivity: 17.545 ± 0.71
[5]; 303.15 K
  relative permittivity: 16.933 ± 0.7

## CCCO [propan-1-ol] + CCCCCCN
[4]; 293.15 K
  refractive index: 1.38514 ± 0.00033
[4]; 298.15 K
  refractive index: 1.38306 ± 0.00033
[4]; 303.15 K
  refractive index: 1.38102 ± 0.00033
[5]; 293.15 K
  relative permittivity: 21.15 ± 0.78
[5]; 298.15 K
  relative permittivity: 20.449 ± 0.77
[5]; 303.15 K
  relative permittivity: 19.784 ± 0.76
